Patent US5837862A, “Sialyl Lewis X mimetics incorporating mannopeptides” (The Scripps Research Institute, priority 1996, dated 1998)

Columns and labels:
[1] = in vivo; cited from earlier work
lung injury in rats = settings: cited from earlier work
glycosidase = settings: because of glycosidase reductions; cited from earlier work
L-selectin = target: T1, L-selectin (Homo sapiens, UniProt P14151); assay: L-selectin inhibition assay; format: binding; settings: at 3 mM
T1 sequence (P14151 39-372): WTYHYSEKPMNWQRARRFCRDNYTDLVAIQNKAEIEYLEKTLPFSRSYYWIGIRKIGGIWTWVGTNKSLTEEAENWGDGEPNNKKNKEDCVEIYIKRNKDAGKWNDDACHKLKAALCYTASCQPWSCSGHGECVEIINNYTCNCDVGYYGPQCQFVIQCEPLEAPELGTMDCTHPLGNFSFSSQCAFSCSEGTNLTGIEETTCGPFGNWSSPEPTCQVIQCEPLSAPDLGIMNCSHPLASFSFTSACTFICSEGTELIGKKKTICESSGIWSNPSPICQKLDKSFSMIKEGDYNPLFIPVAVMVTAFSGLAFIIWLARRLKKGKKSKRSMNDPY

P-selectin = target: T2, P-selectin (Homo sapiens, UniProt P16109); assay: P-selectin inhibition assay; format: binding; settings: at 3 mM
T2 sequence (P16109 42-830): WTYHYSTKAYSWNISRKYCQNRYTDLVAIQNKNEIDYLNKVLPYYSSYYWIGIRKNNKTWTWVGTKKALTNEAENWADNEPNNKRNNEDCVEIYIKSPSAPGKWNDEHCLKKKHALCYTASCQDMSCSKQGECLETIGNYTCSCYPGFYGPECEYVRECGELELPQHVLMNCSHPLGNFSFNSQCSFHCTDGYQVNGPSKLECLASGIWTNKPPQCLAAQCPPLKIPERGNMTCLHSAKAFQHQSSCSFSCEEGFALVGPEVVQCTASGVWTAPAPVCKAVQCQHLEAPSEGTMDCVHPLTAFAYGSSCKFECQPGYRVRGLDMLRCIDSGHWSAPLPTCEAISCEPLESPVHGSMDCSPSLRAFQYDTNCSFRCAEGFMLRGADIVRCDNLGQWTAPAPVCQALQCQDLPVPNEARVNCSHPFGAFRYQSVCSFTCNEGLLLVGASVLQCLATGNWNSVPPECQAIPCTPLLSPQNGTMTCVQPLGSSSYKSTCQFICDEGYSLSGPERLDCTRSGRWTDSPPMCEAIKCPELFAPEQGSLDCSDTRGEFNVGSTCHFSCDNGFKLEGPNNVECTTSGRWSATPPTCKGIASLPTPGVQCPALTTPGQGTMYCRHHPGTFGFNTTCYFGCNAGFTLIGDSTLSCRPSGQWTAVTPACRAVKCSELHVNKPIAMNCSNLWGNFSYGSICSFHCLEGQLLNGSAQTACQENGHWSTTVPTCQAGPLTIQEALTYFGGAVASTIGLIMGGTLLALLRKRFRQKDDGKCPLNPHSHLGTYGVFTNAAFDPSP

E-selectin = target: T3, E-selectin (Homo sapiens, UniProt P16581); assay: E-selectin inhibition assay (Weitz-Schmidt et al.); format: binding
T3 sequence (P16581 22-610): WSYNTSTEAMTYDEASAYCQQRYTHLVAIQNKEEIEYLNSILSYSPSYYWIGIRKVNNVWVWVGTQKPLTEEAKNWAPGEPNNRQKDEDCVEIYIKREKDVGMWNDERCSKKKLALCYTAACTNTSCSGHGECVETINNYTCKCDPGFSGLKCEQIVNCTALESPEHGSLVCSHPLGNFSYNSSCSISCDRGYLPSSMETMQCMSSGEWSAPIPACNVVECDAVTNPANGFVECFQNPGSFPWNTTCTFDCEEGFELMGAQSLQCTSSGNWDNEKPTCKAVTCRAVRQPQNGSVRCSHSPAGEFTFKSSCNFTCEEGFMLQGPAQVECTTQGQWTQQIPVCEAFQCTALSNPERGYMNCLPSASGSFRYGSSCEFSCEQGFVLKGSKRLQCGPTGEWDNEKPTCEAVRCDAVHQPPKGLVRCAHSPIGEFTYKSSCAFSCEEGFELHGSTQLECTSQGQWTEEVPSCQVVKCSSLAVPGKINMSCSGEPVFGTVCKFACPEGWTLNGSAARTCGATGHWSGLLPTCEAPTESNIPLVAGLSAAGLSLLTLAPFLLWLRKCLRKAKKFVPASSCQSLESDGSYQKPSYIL

Compound | oral activity [1] | effective intravenous concentration (lung injury in rats; rat, intravenous infusion of up to 200 μg, calculated) | effect on lung injury (lung injury in rats; rat, intravenous infusion of up to 200 μg, cobra venom) | IC50 (lung injury in rats; rats, read-out: IC50 value in vivo for protecting against lung injury) [µM] | stability in the blood stream (glycosidase) | inhibition of L-selectin (L-selectin) | inhibition of P-selectin (P-selectin) | IC50 (E-selectin) [µM] | activity relative to SLex (E-selectin; versus SLex) [fold]
NeuAcα2→3Galβ1→4(Fucα1→3)GlcNAc [SLex] | orally inactive | less than 1 μM | dramatically reduced lung injury | ~1 | unstable in the blood stream |  |  |  | 
O=C(O)CNC(=O)[C@@H](O)[C@H](O)C[C@H]1O[C@H](CO)[C@@H](O)[C@H](O)[C@@H]1O [Mimetic 5, (2S,3R)-N-Carboxylmethyl-2,3-dihydroxy-4-(α-D -mannopyranosyl)-butyramide] |  |  |  |  |  | does not inhibit | does not inhibit | 160 | 3
